ChEMBL document CHEMBL3046407, “Toxicity of monoterpenes against larvae and adults of Colorado potato beetle, Leptinotarsa decemlineata Say (Coleoptera: Chrysomelidae)” (2007)

What was measured:
[1] = test system: Leptinotarsa decemlineata; assay: Insecticidal activity against third-instar larval stage of Leptinotarsa decemlineata infested potato leaves assessed as mortality at 10 mg after 12 hr relative to control; format: functional
[2] = test system: Leptinotarsa decemlineata; format: functional, Instar larval stage
[3] = test system: Leptinotarsa decemlineata; format: functional, Instar larval stage; remark: listed apart in the source
[4] = test system: Leptinotarsa decemlineata; format: functional, Instar larval stage; remark: listed apart in the source
[5] = test system: Leptinotarsa decemlineata; assay: Insecticidal activity against second-instar larval stage of Leptinotarsa decemlineata infested potato leaves assessed as mortality at 20 mg after 12 hr relative to control; format: functional
[6] = test system: Leptinotarsa decemlineata; format: functional, Instar larval stage; remark: listed apart in the source
[7] = test system: Leptinotarsa decemlineata; format: functional, Instar larval stage; remark: listed apart in the source
[8] = test system: Leptinotarsa decemlineata; format: functional, Instar larval stage; remark: listed apart in the source
[9] = test system: Leptinotarsa decemlineata; assay: Insecticidal activity against second-instar larval stage of Leptinotarsa decemlineata infested potato leaves assessed as mortality at 10 mg after 12 hr relative to control; format: functional
[10] = test system: Leptinotarsa decemlineata; assay: Insecticidal activity against adult Leptinotarsa decemlineata infested potato leaves assessed as mortality at 20 mg after 96 hr relative to control; format: functional
[11] = test system: Leptinotarsa decemlineata; assay: Insecticidal activity against first-instar larval stage of Leptinotarsa decemlineata infested potato leaves assessed as mortality at 10 mg after 48 hr relative to control; format: functional
[12] = test system: Leptinotarsa decemlineata; assay: Insecticidal activity against first-instar larval stage of Leptinotarsa decemlineata infested potato leaves assessed as mortality at 20 mg after 96 hr relative to control; format: functional
[13] = test system: Leptinotarsa decemlineata; assay: Insecticidal activity against first-instar larval stage of Leptinotarsa decemlineata infested potato leaves assessed as mortality at 20 mg after 48 hr relative to control; format: functional
[14] = test system: Leptinotarsa decemlineata; assay: Insecticidal activity against first-instar larval stage of Leptinotarsa decemlineata infested potato leaves assessed as mortality at 20 mg after 24 hr relative to control; format: functional
[15] = test system: Leptinotarsa decemlineata; assay: Insecticidal activity against first-instar larval stage of Leptinotarsa decemlineata infested potato leaves assessed as mortality at 20 mg after 12 hr relative to control; format: functional
[16] = test system: Leptinotarsa decemlineata; assay: Insecticidal activity against first-instar larval stage of Leptinotarsa decemlineata infested potato leaves assessed as mortality at 10 mg after 96 hr relative to control; format: functional
[17] = test system: Leptinotarsa decemlineata; assay: Insecticidal activity against first-instar larval stage of Leptinotarsa decemlineata infested potato leaves assessed as mortality at 10 mg after 24 hr relative to control; format: functional
[18] = test system: Leptinotarsa decemlineata; assay: Insecticidal activity against adult Leptinotarsa decemlineata infested potato leaves assessed as mortality at 20 mg after 48 hr relative to control; format: functional
[19] = test system: Leptinotarsa decemlineata; assay: Insecticidal activity against adult Leptinotarsa decemlineata infested potato leaves assessed as mortality at 20 mg after 24 hr relative to control; format: functional
[20] = test system: Leptinotarsa decemlineata; assay: Insecticidal activity against adult Leptinotarsa decemlineata infested potato leaves assessed as mortality at 20 mg after 12 hr relative to control; format: functional
[21] = test system: Leptinotarsa decemlineata; assay: Insecticidal activity against adult Leptinotarsa decemlineata infested potato leaves assessed as mortality at 10 mg after 96 hr relative to control; format: functional
[22] = test system: Leptinotarsa decemlineata; assay: Insecticidal activity against adult Leptinotarsa decemlineata infested potato leaves assessed as mortality at 10 mg after 48 hr relative to control; format: functional
[23] = test system: Leptinotarsa decemlineata; assay: Insecticidal activity against adult Leptinotarsa decemlineata infested potato leaves assessed as mortality at 10 mg after 24 hr relative to control; format: functional
[24] = test system: Leptinotarsa decemlineata; assay: Insecticidal activity against adult Leptinotarsa decemlineata infested potato leaves assessed as mortality at 10 mg after 12 hr relative to control; format: functional
[25] = test system: Leptinotarsa decemlineata; assay: Insecticidal activity against first-instar larval stage of Leptinotarsa decemlineata infested potato leaves assessed as mortality at 10 mg after 12 hr relative to control; format: functional
[26] = test system: Leptinotarsa decemlineata; format: functional, Instar larval stage; remark: listed apart in the source
[27] = test system: Leptinotarsa decemlineata; format: functional, Instar larval stage; remark: listed apart in the source
[28] = test system: Leptinotarsa decemlineata; assay: Insecticidal activity against third-instar larval stage of Leptinotarsa decemlineata infested potato leaves assessed as mortality at 20 mg after 24 hr relative to control; format: functional
[29] = test system: Leptinotarsa decemlineata; assay: Insecticidal activity against third-instar larval stage of Leptinotarsa decemlineata infested potato leaves assessed as mortality at 20 mg after 12 hr relative to control; format: functional
[30] = test system: Leptinotarsa decemlineata; format: functional, Instar larval stage; remark: listed apart in the source
[31] = test system: Leptinotarsa decemlineata; format: functional, Instar larval stage; remark: listed apart in the source
[32] = test system: Leptinotarsa decemlineata; assay: Insecticidal activity against third-instar larval stage of Leptinotarsa decemlineata infested potato leaves assessed as mortality at 10 mg after 24 hr relative to control; format: functional
[33] = test system: Leptinotarsa decemlineata; assay: Insecticidal activity against second-instar larval stage of Leptinotarsa decemlineata infested potato leaves assessed as mortality at 20 ul after 96 hr (reference value: 3.3 +/- 3.3%); format: functional
[34] = test system: Leptinotarsa decemlineata; assay: Insecticidal activity against second-instar larval stage of Leptinotarsa decemlineata infested potato leaves assessed as mortality at 20 ul after 48 hr (reference value: 3.3 +/- 3.3%); format: functional
[35] = test system: Leptinotarsa decemlineata; assay: Insecticidal activity against second-instar larval stage of Leptinotarsa decemlineata infested potato leaves assessed as mortality at 20 ul after 24 hr (reference value: 3.3 +/- 3.3%); format: functional
[36] = test system: Leptinotarsa decemlineata; assay: Insecticidal activity against second-instar larval stage of Leptinotarsa decemlineata infested potato leaves assessed as mortality at 10 ul after 12 hr relative to control; format: functional
[37] = test system: Leptinotarsa decemlineata; assay: Insecticidal activity against adult Leptinotarsa decemlineata infested potato leaves assessed as mortality at 20 ul after 96 hr relative to control; format: functional
[38] = test system: Leptinotarsa decemlineata; assay: Insecticidal activity against adult Leptinotarsa decemlineata infested potato leaves assessed as mortality at 20 ul after 48 hr relative to control; format: functional
[39] = test system: Leptinotarsa decemlineata; assay: Insecticidal activity against adult Leptinotarsa decemlineata infested potato leaves assessed as mortality at 20 ul after 24 hr relative to control; format: functional
[40] = test system: Leptinotarsa decemlineata; assay: Insecticidal activity against adult Leptinotarsa decemlineata infested potato leaves assessed as mortality at 20 ul after 12 hr relative to control; format: functional
[41] = test system: Leptinotarsa decemlineata; assay: Insecticidal activity against adult Leptinotarsa decemlineata infested potato leaves assessed as mortality at 10 ul after 96 hr relative to control; format: functional
[42] = test system: Leptinotarsa decemlineata; assay: Insecticidal activity against adult Leptinotarsa decemlineata infested potato leaves assessed as mortality at 10 ul after 48 hr relative to control; format: functional
[43] = test system: Leptinotarsa decemlineata; assay: Insecticidal activity against adult Leptinotarsa decemlineata infested potato leaves assessed as mortality at 10 ul after 24 hr relative to control; format: functional
[44] = test system: Leptinotarsa decemlineata; assay: Insecticidal activity against adult Leptinotarsa decemlineata infested potato leaves assessed as mortality at 10 ul after 12 hr relative to control; format: functional
[45] = test system: Leptinotarsa decemlineata; assay: Insecticidal activity against second-instar larval stage of Leptinotarsa decemlineata infested potato leaves assessed as mortality at 20 ul after 12 hr relative to control; format: functional
[46] = test system: Leptinotarsa decemlineata; assay: Insecticidal activity against second-instar larval stage of Leptinotarsa decemlineata infested potato leaves assessed as mortality at 10 ul after 96 hr (reference value: 3.3 +/- 3.3%); format: functional
[47] = test system: Leptinotarsa decemlineata; assay: Insecticidal activity against second-instar larval stage of Leptinotarsa decemlineata infested potato leaves assessed as mortality at 10 ul after 48 hr (reference value: 3.3 +/- 3.3%); format: functional
[48] = test system: Leptinotarsa decemlineata; assay: Insecticidal activity against second-instar larval stage of Leptinotarsa decemlineata infested potato leaves assessed as mortality at 10 ul after 24 hr (reference value: 3.3 +/- 3.3%); format: functional
[49] = test system: Leptinotarsa decemlineata; assay: Insecticidal activity against first-instar larval stage of Leptinotarsa decemlineata infested potato leaves assessed as mortality at 20 ul after 96 hr relative to control; format: functional
[50] = test system: Leptinotarsa decemlineata; assay: Insecticidal activity against first-instar larval stage of Leptinotarsa decemlineata infested potato leaves assessed as mortality at 20 ul after 48 hr relative to control; format: functional
[51] = test system: Leptinotarsa decemlineata; assay: Insecticidal activity against first-instar larval stage of Leptinotarsa decemlineata infested potato leaves assessed as mortality at 20 ul after 24 hr relative to control; format: functional
[52] = test system: Leptinotarsa decemlineata; assay: Insecticidal activity against first-instar larval stage of Leptinotarsa decemlineata infested potato leaves assessed as mortality at 20 ul after 12 hr relative to control; format: functional
[53] = test system: Leptinotarsa decemlineata; assay: Insecticidal activity against first-instar larval stage of Leptinotarsa decemlineata infested potato leaves assessed as mortality at 10 ul after 96 hr relative to control; format: functional
[54] = test system: Leptinotarsa decemlineata; assay: Insecticidal activity against first-instar larval stage of Leptinotarsa decemlineata infested potato leaves assessed as mortality at 10 ul after 48 hr relative to control; format: functional
[55] = test system: Leptinotarsa decemlineata; assay: Insecticidal activity against first-instar larval stage of Leptinotarsa decemlineata infested potato leaves assessed as mortality at 10 ul after 12 hr relative to control; format: functional
[56] = test system: Leptinotarsa decemlineata; assay: Insecticidal activity against first-instar larval stage of Leptinotarsa decemlineata infested potato leaves assessed as mortality at 10 ul after 24 hr relative to control; format: functional
[57] = test system: Leptinotarsa decemlineata; assay: Insecticidal activity against third-instar larval stage of Leptinotarsa decemlineata infested potato leaves assessed as mortality at 20 ul after 96 hr (reference value: 3.3 +/- 3.3%); format: functional
[58] = test system: Leptinotarsa decemlineata; assay: Insecticidal activity against third-instar larval stage of Leptinotarsa decemlineata infested potato leaves assessed as mortality at 20 ul after 48 hr (reference value: 3.3 +/- 3.3%); format: functional
[59] = test system: Leptinotarsa decemlineata; assay: Insecticidal activity against third-instar larval stage of Leptinotarsa decemlineata infested potato leaves assessed as mortality at 20 ul after 24 hr relative to control; format: functional
[60] = test system: Leptinotarsa decemlineata; assay: Insecticidal activity against third-instar larval stage of Leptinotarsa decemlineata infested potato leaves assessed as mortality at 20 ul after 12 hr relative to control; format: functional
[61] = test system: Leptinotarsa decemlineata; assay: Insecticidal activity against third-instar larval stage of Leptinotarsa decemlineata infested potato leaves assessed as mortality at 10 ul after 96 hr (reference value: 3.3 +/- 3.3%); format: functional
[62] = test system: Leptinotarsa decemlineata; assay: Insecticidal activity against third-instar larval stage of Leptinotarsa decemlineata infested potato leaves assessed as mortality at 10 ul after 48 hr (reference value: 3.3 +/- 3.3%); format: functional
[63] = test system: Leptinotarsa decemlineata; assay: Insecticidal activity against third-instar larval stage of Leptinotarsa decemlineata infested potato leaves assessed as mortality at 10 ul after 24 hr relative to control; format: functional
[64] = test system: Leptinotarsa decemlineata; assay: Insecticidal activity against third-instar larval stage of Leptinotarsa decemlineata infested potato leaves assessed as mortality at 10 ul after 12 hr relative to control; format: functional

CC1=CC[C@@H](C(C)(C)O)CC1 [ALPHA-TERPINEOL]
mortality [1]: 0% | mortality [2]: 10% | mortality [3]: 6.7% | mortality [4]: 3.3% | mortality [5]: 0% | mortality [6]: 13.3% | mortality [7]: 6.7% | mortality [8]: 6.7% | mortality [9]: 0% | mortality [10]: 23.3% | mortality [11]: 13.7% | mortality [12]: 30% | mortality [13]: 26.7% | mortality [14]: 23.3% | mortality [15]: 16.7% | mortality [16]: 16.7% | mortality [17]: 6.7% | mortality [18]: 0% | mortality [19]: 0% | mortality [20]: 0% | mortality [21]: 16.7% | mortality [22]: 6.7% | mortality [23]: 0% | mortality [24]: 0% | mortality [25]: 3.3% | mortality [26]: 23.3% | mortality [27]: 20% | mortality [28]: 13.3% | mortality [29]: 13.3% | mortality [30]: 0% | mortality [31]: 0% | mortality [32]: 0%

C=C1C2CCC(C2)C1(C)C (stereo not drawn) [CAMPHENE]
mortality [1]: 0% | mortality [10]: 76.7% | mortality [11]: 6.7% | mortality [12]: 26.7% | mortality [13]: 23.3% | mortality [14]: 23.3% | mortality [15]: 13.3% | mortality [16]: 10% | mortality [17]: 0% | mortality [18]: 76.7% | mortality [19]: 73.3% | mortality [20]: 30% | mortality [21]: 13.3% | mortality [22]: 13.3% | mortality [23]: 13.3% | mortality [24]: 6.7% | mortality [25]: 0% | mortality [26]: 50% | mortality [27]: 46.7% | mortality [28]: 43.3% | mortality [29]: 16.7% | mortality [30]: 10% | mortality [31]: 6.7% | mortality [32]: 0%

CC1=CCC(O)(C(C)C)CC1 (stereo not drawn) [TERPINEOL]
mortality [33]: 100% | mortality [34]: 100% | mortality [35]: 100% | mortality [36]: 33.3% | mortality [37]: 100% | mortality [38]: 80% | mortality [39]: 43.3% | mortality [40]: 16.7% | mortality [41]: 100% | mortality [42]: 93.3% | mortality [43]: 76.7% | mortality [44]: 3.3% | mortality [45]: 60% | mortality [46]: 100% | mortality [47]: 100% | mortality [48]: 83.3% | mortality [49]: 100% | mortality [50]: 100% | mortality [51]: 86.7% | mortality [52]: 40% | mortality [53]: 100% | mortality [54]: 73.3% | mortality [55]: 0% | mortality [56]: 40% | mortality [57]: 40% | mortality [58]: 26.7% | mortality [59]: 23.3% | mortality [60]: 3.3% | mortality [61]: 23.3% | mortality [62]: 23.3% | mortality [63]: 16.7% | mortality [64]: 6.7%
